This passage reports Km results from publication PMC8954846, “Molecular Characterisation of Flavanone O-methylation in Eucalyptus” (International Journal of Molecular Sciences, 2022).

Read-outs that look alike come from different tables or passages of the source.

One assay deals with T1, EnOMT1.
T1 construct: gene OMT1; full-length, 349 residues; E. coli BL21 (DE3)
In words: methyltransferase assay, RP-HPLC of pinostrobin formed, Michaelis-Menten fit. The settings on record: crude recombinant E. coli extract, 50 mM potassium phosphate pH 7, 30 °C, read-out: apparent Km. It counts as biochemical, Eucalyptus nitida.

The test system of the next assay is T2, EcOMT1.
T2 construct: gene OMT1; full-length
The description is as above. The format is biochemical, Eucalyptus croajingolensis. Conditions: crude recombinant E. coli extract; SAM; 50 mM potassium phosphate pH 7, 30 °C; read-out: apparent Km app.

Another assay relates to T3, EmOMT1.
T3 construct: gene OMT1; full-length
In words: methyltransferase assay, RP-HPLC, extrapolated non-linear regression. The settings on record: crude recombinant E. coli extract, SAM, 50 mM potassium phosphate pH 7, 30 °C, 16 h incubation needed for product, read-out: apparent Km. It counts as biochemical, Eucalyptus mitchelliana.

In general, Km refers to the concentration of substrate that gives half-maximal velocity. As for `C[S+](CC[C@H](N)C(=O)O)C[C@H]1O[C@@H](n2cnc3c(N)ncnc32)[C@H](O)[C@@H]1O` (stereo partly shown) [S-adenosylmethionine], the Km with EnOMT1 (50 μM pinocembrin, methyl donor) was determined as 4.99 ± 0.29 µM.

Take `O=C1C[C@@H](c2ccccc2)Oc2cc(O)cc(O)c21` [pinocembrin]: the Km was 2.55 ± 0.38 µM with EcOMT1; 2.05 ± 0.16 µM in the assay with EnOMT1 (100 μM SAM, kcat from His-affinity purified enzyme); greater than 800 µM in the assay with EmOMT1.
